Data from publication PMC5964550 (Contrast Media & Molecular Imaging, 2018).
Each block holds one compound with its values, some of them ahead of it.

Key:
[1] = tested on: P-gp at the canalicular membrane; parameters: method as in PMID 12576431; settings: humans; cited from earlier work
OATP1B3 (SLCO1B3) = tested on: OATP1B3 (SLCO1B3); parameters: method as in earlier work; settings: in vitro; cited from earlier work
OATP1B1 (SLCO1B1) = tested on: OATP1B1 (SLCO1B1); parameters: method as in earlier work; settings: in vitro; cited from earlier work
OATP2B1 (SLCO2B1) = tested on: OATP2B1 (SLCO2B1); parameters: method as in earlier work; settings: in vitro; cited from earlier work
[2] = [11C]metoclopramide plasma kinetics and metabolism in rats (radio-HPLC); type: in vivo; settings: rat
From the text: […]. […] […].

[3] = rat, iv
[4] = tested on: cytochrome P450 2D6 (CYP2D6); settings: cited from earlier work
P-gp = settings: mice, cited from earlier work
human P-gp = tested on: human P-gp; parameters: method as in PMID 17962372, PMID 15502009; settings: cited from earlier work
[5] = cited from earlier work
rodent P-gp = tested on: rodent P-gp; parameters: method as in PMID 17962372, PMID 15502009; settings: cited from earlier work

SMILES: COc1cc2c(cc1OC)CN(CCc1ccc(NC(=O)c3cc(OC)c(OC)cc3NC(=O)c3cnc4ccccc4c3)cc1)CC2 [tariquidar]
effect on liver exposure to [99mTc]sestamibi [1]: enhance
inhibitor of OATP1B3 (OATP1B3 (SLCO1B3)): not
inhibitor of OATP1B1 (OATP1B1 (SLCO1B1)): not
inhibitor of OATP2B1 (OATP2B1 (SLCO2B1)): inhibitor

increase in AUCplasma, pharmacologic dose vs tracer dose ([2]; in vivo): 2.1 fold
proportion of parent [11C]metoclopramide in plasma, pharmacologic dose vs tracer dose ([2]; metoclopramide 3 mg/kg, calculated from ref 14): higher
impact of P-gp inhibition on plasma clearance and metabolism ([2]; not told, 8 mg/kg): did not impact
AUCliver (area under the time-activity curve of radioactivity in the liver, 0 to 30 min) ([3]; male, Wistar, in vivo, 3 mg/kg): 42.9 ± 13.8 SUV·min
effect of P-gp inhibition on liver AUC ([3]; not told, 8 mg/kg): did not significantly impact
SMILES: CCN(CC)CCNC(=O)c1cc(Cl)c(N)cc1O[11CH3] [[^11C]metoclopramide]

SMILES: CCN(CC)CCNC(=O)c1cc(Cl)c(N)cc1OC [metoclopramide]
substrate of CYP2D6 [4]: substrate
influence of P-gp deficiency on metoclopramide PK (P-gp; 3 mg/kg, over 5 hours): no influence
effect of P-gp deficiency on brain distribution (P-gp): enhance
impact of P-gp deficiency on plasma pharmacokinetics (P-gp): no or negligible impact
substrate of human P-gp (human P-gp): substrate
excreted unchanged in urine ([5]; after intravenous administration): 19%
lower plasma clearance in hepatic impairment (liver cirrhosis) ([5]; liver cirrhosis): 50%
substrate of rodent P-gp (rodent P-gp): substrate
